The numbers were not newly measured in US5296468A, “GnRH analogs” (The Salk Institute for Biological Studies, priority 1993, dated 1994), which cites them from elsewhere.

For one data set, the target named is T1, the receptor (Homo sapiens, UniProt P30968).
T1 sequence (P30968 1-328): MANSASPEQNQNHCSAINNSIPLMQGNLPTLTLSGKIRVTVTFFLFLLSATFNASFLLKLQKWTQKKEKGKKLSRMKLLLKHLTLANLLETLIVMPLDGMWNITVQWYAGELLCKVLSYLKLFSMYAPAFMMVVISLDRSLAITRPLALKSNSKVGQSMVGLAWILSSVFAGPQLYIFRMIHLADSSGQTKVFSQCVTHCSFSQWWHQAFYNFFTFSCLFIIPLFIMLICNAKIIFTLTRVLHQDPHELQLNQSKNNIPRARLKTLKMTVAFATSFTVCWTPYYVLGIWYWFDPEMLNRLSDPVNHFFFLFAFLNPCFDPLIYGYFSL
The conditions noted are these: background, U.S. Pat. No. 4,072,668.

For data set [1] the following is noted: background, U.S. Pat. No. 4,072,668.

In the case of “pGlu-His-Trp-Ser-Tyr-D-Ala-Leu-Arg-Pro-Gly-NH2 [[D-Ala^6]-GnRH]”, at the receptor, the “binding strength to the receptor compared with the native hormone” value is “greater binding strength to the receptor”. The “biological potency compared with the native hormone” value in data set [1] is reported as “greater biological potency than the native hormone”.
